From PubChem BioAssay AID248 (DTP/NCI, 2004)
“And” between values parts separate entries of the source, which are not always exact repeats. Equal values may be shown once. Inconclusive results and toxic doses are left out. No stated cut-off is given here; in the data, active means T/C of 150% or more; inactive means T/C below 125%.

Test system: L1210 leukemia ip in BDF1 mice, survival T/C
Experiment: NCI In Vivo Anticancer Drug Screen. Data for tumor model L1210 Leukemia (intraperitoneal) in B6D2F1 (BDF1) mice
Conditions: endpoint: mean survival time, higher = longer survival
Procedure, shortened: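 Mice bearing the transplanted tumor received compound or vehicle. Survival of the treated group was divided by that of the vehicle-treated control group to give the ratio.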

[1] = dose: 400.0 mg/kg/injection, schedule: Q04DX002 (ip), vehicle: saline with Tween-80
[2] = dose: 100.0 mg/kg/injection, schedule: Q04DX002 (ip), vehicle: saline with Tween-80
[3] = dose: 200.0 mg/kg/injection, schedule: Q04DX002 (ip), vehicle: saline with Tween-80
[4] = dose: 50.0 mg/kg/injection, schedule: Q04DX003 (ip), vehicle: saline
[5] = dose: 100.0 mg/kg/injection, schedule: Q01DX009 (ip), vehicle: Klucel (hydroxypropylcellulose) (HPC)
[6] = dose: 100.0 mg/kg/injection, schedule: Q04DX003 (ip), vehicle: Klucel (hydroxypropylcellulose) (HPC)
[7] = dose: 100.0 mg/kg/injection, schedule: Q04DX003 (ip), vehicle: saline
[8] = dose: 200.0 mg/kg/injection, schedule: Q01DX009 (ip), vehicle: Klucel (hydroxypropylcellulose) (HPC)
[9] = dose: 200.0 mg/kg/injection, schedule: Q04DX003 (ip), vehicle: Klucel (hydroxypropylcellulose) (HPC)
[10] = dose: 400.0 mg/kg/injection, schedule: Q01DX009 (ip), vehicle: Klucel (hydroxypropylcellulose) (HPC)
[11] = dose: 400.0 mg/kg/injection, schedule: Q04DX003 (ip), vehicle: Klucel (hydroxypropylcellulose) (HPC)
[12] = dose: 100.0 mg/kg/injection, schedule: Q01DX001 (ip), vehicle: saline
[13] = dose: 200.0 mg/kg/injection, schedule: Q01DX001 (ip), vehicle: saline
[14] = dose: 400.0 mg/kg/injection, schedule: Q01DX001 (ip), vehicle: saline
[15] = dose: 100.0 mg/kg/injection, schedule: Q01DX001 (ip), vehicle: carboxymethylcellulose (CMC)
[16] = dose: 200.0 mg/kg/injection, schedule: Q01DX001 (ip), vehicle: carboxymethylcellulose (CMC)
[17] = dose: 400.0 mg/kg/injection, schedule: Q01DX001 (ip), vehicle: carboxymethylcellulose (CMC)
[18] = dose: 100.0 mg/kg/injection, schedule: Q04DX002 (ip), vehicle: Klucel (hydroxypropylcellulose) (HPC)
[19] = dose: 200.0 mg/kg/injection, schedule: Q04DX002 (ip), vehicle: Klucel (hydroxypropylcellulose) (HPC)
[20] = dose: 12.5 mg/kg/injection, schedule: Q04DX003 (ip), vehicle: saline
[21] = dose: 25.0 mg/kg/injection, schedule: Q04DX003 (ip), vehicle: saline

Measured: T/C

c1ccc(CC(c2ccccc2)(c2ccccc2)c2ccccc2)cc1
inactive: dose: 25.6 mg/kg/injection, schedule: Q04DX002 (ip), vehicle: saline with Tween-80 89 % of control | dose: 64.0 mg/kg/injection, schedule: Q04DX002 (ip), vehicle: saline with Tween-80 93 % of control | dose: 160.0 mg/kg/injection, schedule: Q04DX002 (ip), vehicle: saline with Tween-80 93 % of control | [1] 112 % of control

CCOC(=O)c1ccc(N=C2C(C)(C)C(=Nc3ccc(C(=O)OCC)cc3)C2(C)C)cc1
inactive: [2] 93 % of control | [3] 87 % of control | [1] 87 % of control

O=C1NCCO1
inactive: [4] 97 % of control | [5] 103 % of control | [6] 105 % of control | [7] 102 % of control and 106 % of control | [8] 105 % of control | [9] 103 % of control | dose: 200.0 mg/kg/injection, schedule: Q04DX003 (ip), vehicle: saline 95 % of control and 92 % of control and 103 % of control | [10] 103 % of control | [11] 103 % of control | dose: 400.0 mg/kg/injection, schedule: Q04DX003 (ip), vehicle: saline 103 % of control and 105 % of control

CC1(C)CCC(C)(C)C2CC3CC4C(CC3CC21)C(C)(C)CCC4(C)C (configuration not stated)
inactive: [12] 89 % of control | [13] 104 % of control | [14] 97 % of control

CNC(=O)Nc1ccc(OC)cc1Cl
inactive: [5] 98 % of control and 87 % of control | [8] 98 % of control | [10] 95 % of control and 90 % of control

CS(=O)(=O)n1c(C(O)c2ccccc2)nc2ccccc21 (configuration not stated)
inactive: [15] 100 % of control | [16] 94 % of control | [17] 89 % of control

NC(=S)N/N=C/c1cccnc1
inactive: dose: 25.0 mg/kg/injection, schedule: Q01DX009 (ip), vehicle: Klucel (hydroxypropylcellulose) (HPC) 92 % of control | dose: 50.0 mg/kg/injection, schedule: Q01DX009 (ip), vehicle: Klucel (hydroxypropylcellulose) (HPC) 87 % of control | dose: 50.0 mg/kg/injection, schedule: Q04DX002 (ip), vehicle: Klucel (hydroxypropylcellulose) (HPC) 98 % of control | [5] 89 % of control | [18] 95 % of control and 107 % of control | [19] 95 % of control

CNC1=C(C)C(=O)C2=C(C1=O)C(COC(N)=O)C1(O)C3C(CN21)N3C (configuration not stated)
inactive: dose: 6.6 mg/kg/injection, schedule: Q01DX001 (ip), vehicle: alcohol 100 % of control | dose: 15.0 mg/kg/injection, schedule: Q01DX001 (ip), vehicle: acetone 104 % of control

COC1OC(COC(=O)c2ccc([N+](=O)[O-])cc2)C2SC12 (configuration not stated)
inactive: [6] 104 % of control | [9] 97 % of control | [11] 97 % of control

CCOc1cc(OCC)c(C=O)c(OCC)c1
inactive: dose: 100.0 mg/kg/injection, schedule: Q01DX009 (ip), vehicle: other 96 % of control | [13] 88 % of control | dose: 200.0 mg/kg/injection, schedule: Q01DX009 (ip), vehicle: other 94 % of control | [14] 102 % of control | dose: 400.0 mg/kg/injection, schedule: Q01DX009 (ip), vehicle: other 97 % of control

COC(=O)c1[nH]ncc1N=NN(C)C
inactive: dose: 176.0 mg/kg/injection, schedule: Q01DX001 (ip), vehicle: carboxymethylcellulose (CMC) 111 % of control | dose: 264.0 mg/kg/injection, schedule: Q01DX001 (ip), vehicle: carboxymethylcellulose (CMC) 120 % of control | [17] 113 % of control

O=[N+]([O-])c1c(Br)sc(Br)c1[N+](=O)[O-]
inactive: dose: 2.5 mg/kg/injection, schedule: Q01DX009 (ip), vehicle: Klucel (hydroxypropylcellulose) (HPC) 88 % of control | dose: 2.5 mg/kg/injection, schedule: Q04DX003 (ip), vehicle: Klucel (hydroxypropylcellulose) (HPC) 109 % of control | dose: 5.0 mg/kg/injection, schedule: Q01DX009 (ip), vehicle: Klucel (hydroxypropylcellulose) (HPC) 88 % of control | dose: 5.0 mg/kg/injection, schedule: Q04DX003 (ip), vehicle: Klucel (hydroxypropylcellulose) (HPC) 101 % of control | dose: 10.0 mg/kg/injection, schedule: Q01DX009 (ip), vehicle: Klucel (hydroxypropylcellulose) (HPC) 108 % of control | dose: 10.0 mg/kg/injection, schedule: Q04DX003 (ip), vehicle: Klucel (hydroxypropylcellulose) (HPC) 96 % of control

CN=C(N/N=C/c1ccccc1)N(C)C
inactive: dose: 25.0 mg/kg/injection, schedule: Q04DX003 (ip), vehicle: Klucel (hydroxypropylcellulose) (HPC) 107 % of control | dose: 50.0 mg/kg/injection, schedule: Q04DX003 (ip), vehicle: Klucel (hydroxypropylcellulose) (HPC) 100 % of control | dose: 87.5 mg/kg/injection, schedule: Q04DX003 (ip), vehicle: Klucel (hydroxypropylcellulose) (HPC) 98 % of control

O=Cc1ccccc1OCCCC[P+](c1ccccc1)(c1ccccc1)c1ccccc1
inactive: dose: 5.0 mg/kg/injection, schedule: Q01DX001 (ip), vehicle: saline 111 % of control | dose: 10.0 mg/kg/injection, schedule: Q01DX001 (ip), vehicle: saline 107 % of control | dose: 20.0 mg/kg/injection, schedule: Q01DX001 (ip), vehicle: saline 102 % of control

Nc1nc2nc(CC(=O)C(=O)O)c(=O)[nH]c2c(=O)[nH]1
inactive: dose: 3.12 mg/kg/injection, schedule: Q01DX009 (ip), vehicle: saline with Tween-80 97 % of control | dose: 6.25 mg/kg/injection, schedule: Q01DX009 (ip), vehicle: saline with Tween-80 101 % of control | dose: 12.5 mg/kg/injection, schedule: Q01DX009 (ip), vehicle: saline with Tween-80 103 % of control | [20] 105 % of control | [21] 111 % of control | dose: 50.0 mg/kg/injection, schedule: Q01DX009 (ip), vehicle: saline 97 % of control | [4] 104 % of control | [7] 106 % of control

Cc1cc2nc(CO)[nH]c2cc1C
inactive: [5] 94 % of control | [6] 95 % of control | [8] 96 % of control | [9] 93 % of control | [10] 98 % of control | [11] 92 % of control

Cc1ccc(S(=O)(=O)OCC2CC=CCC2COS(=O)(=O)c2ccc(C)cc2)cc1 (configuration not stated)
inactive: [12] 88 % of control | [13] 92 % of control | [14] 88 % of control

Cc1nc(C[N+](C)(C)C)c2cnccn12
inactive: [7] 102 % of control

CCCCCCCCOC(=O)Nc1ccc(S(=O)(=O)NC2CCCCC2)cc1
inactive: [15] 89 % of control | [16] 89 % of control | [17] 94 % of control

CCC(=O)c1ccc(N2CCCCC2)cc1
inactive: [18] 103 % of control | [19] 89 % of control

C[C@]12CCC(=O)C=C1CC[C@H]1[C@@H]3CC[C@](O)(C(=O)CO)[C@@]3(C)C[C@H](O)[C@@]12F
inactive: dose: 50.0 mg/kg/injection, schedule: Q01DX001 (sc), vehicle: steriod suspending solution 103 % of control | dose: 100.0 mg/kg/injection, schedule: Q01DX001 (sc), vehicle: steriod suspending solution 100 % of control | dose: 200.0 mg/kg/injection, schedule: Q01DX001 (sc), vehicle: steriod suspending solution 105 % of control | dose: 400.0 mg/kg/injection, schedule: Q01DX001 (sc), vehicle: steriod suspending solution 105 % of control

O=C1OC(=O)C2C1C1C=CC2C1(c1ccccc1)c1ccccc1 (configuration not stated)
inactive: [15] 96 % of control | [16] 96 % of control | [17] 96 % of control

O=C1OC(=O)C2C1C13CCCC1=C1CCC34C(=O)OC(=O)C43CC123 (configuration not stated)
inactive: dose: 6.25 mg/kg/injection, schedule: Q01DX009 (ip), vehicle: saline 111 % of control | dose: 12.5 mg/kg/injection, schedule: Q01DX001 (ip), vehicle: saline 115 % of control | dose: 12.5 mg/kg/injection, schedule: Q01DX009 (ip), vehicle: saline 109 % of control | [20] 106 % of control | dose: 25.0 mg/kg/injection, schedule: Q01DX001 (ip), vehicle: saline 107 % of control | [21] 104 % of control | dose: 50.0 mg/kg/injection, schedule: Q01DX001 (ip), vehicle: saline 109 % of control

Cc1cccc(NC(=S)/C(=C(/[O-])c2ccccc2)[n+]2ccc3ccccc3c2)c1
inactive: [2] 98 % of control | [3] 98 % of control | [1] 91 % of control
